Test results published in PMC10215302 (Antibiotics, 2023).
Values after ≈ are worked out from the molar mass of the structure shown. Read-outs that look alike come from different tables or passages of the source.

Experiments:
[1] = tested on: S. aureus derivative strains
[2] = tested on: S. aureus SA0736
[3] = tested on: S. aureus RN4220; settings: for change of MICs on deletion of SACOL1927 (yfhP): S. aureus mutant strain RN4220, allele replacement; for MIC: Table S4: RN4220
[4] = tested on: S. aureus derivative strains; format: cell-based, Staphylococcus aureus; settings: AUC of tested strain / AUC of S. aureus Mu50
[5] = tested on: S. aureus ATCC 29213
[6] = tested on: S. aureus SA0085; settings: for MIC values: Table S1: SA0085 Abf (passages on antibiotic-free media)
[7] = tested on: S. aureus SA0422
[8] = tested on: S. aureus SA0077; settings: for MIC values: Table S1: SA0077 Abf (passages on antibiotic-free media)
[9] = tested on: S. aureus (VISA/hVISA isolates; MprF P314L strains); settings: MprF AAS P314L, cited from earlier work
[10] = SA0736, selecting agent DAP, passage 5
[11] = SA0736, selecting agent DAP, passage 20
[12] = SA0736, selecting agent DAP, passage 40Y (yellow colonies)
[13] = SA0736, selecting agent VAN, passage 0
[14] = SA0736, selecting agent VAN, passage 20
[15] = SA0736, selecting agent VAN, passage 40
[16] = Table S1: SA0736 DAP-W (40 passages on daptomycin, white colonies)
[17] = Table S1: SA0736 DAP-Y (40 passages on daptomycin, yellow colonies)
[18] = Table S4: SA0736, strain before selection
[19] = Table S1: RN4220 ∆ (strain with deletion in SACOL1927)
[20] = ATCC 29213, selecting agent DAP, passage 5
[21] = ATCC 29213, selecting agent DAP, passage 20
[22] = ATCC 29213, selecting agent DAP, passage 40
[23] = ATCC 29213, selecting agent VAN, passage 0
[24] = ATCC 29213, selecting agent VAN, passage 5
[25] = ATCC 29213, selecting agent VAN, passage 20
[26] = ATCC 29213, selecting agent VAN, passage 40
[27] = Table S4: ATCC 29213, strain before selection
[28] = SA0085, selecting agent DAP, passage 5
[29] = SA0085, selecting agent DAP, passage 20
[30] = SA0085, selecting agent DAP, passage 40
[31] = SA0085, selecting agent VAN, passage 0
[32] = SA0085, selecting agent VAN, passage 5
[33] = SA0085, selecting agent VAN, passage 20
[34] = SA0085, selecting agent VAN, passage 40
[35] = Table S4: SA0085, strain before selection
[36] = SA0422, selecting agent DAP, passage 5
[37] = SA0422, selecting agent DAP, passage 20
[38] = SA0422, selecting agent DAP, passage 40
[39] = SA0422, selecting agent VAN, passage 0
[40] = SA0422, selecting agent VAN, passage 5
[41] = SA0422, selecting agent VAN, passage 20
[42] = SA0422, selecting agent VAN, passage 40
[43] = Table S4: SA0422, strain before selection
[44] = SA0077, selecting agent DAP, passage 5
[45] = SA0077, selecting agent DAP, passage 20
[46] = SA0077, selecting agent DAP, passage 40
[47] = SA0077, selecting agent VAN, passage 0
[48] = SA0077, selecting agent VAN, passage 5
[49] = SA0077, selecting agent VAN, passage 20
[50] = SA0077, selecting agent VAN, passage 40
[51] = Table S4: SA0077, strain before selection

Compound: vancomycin
- MICs of derivative strains at the end of selection with vancomycin ([1]; derivative strains, end of vancomycin selection): 4 to 8 µg/mL
- change of MICs after 10 passages in antibiotic-free media ([1]; vancomycin-selected derivatives, stability test): decreased by one dilution
- MIC [2, 10]: 0.5 µg/mL
- MIC [2, 11]: 4 µg/mL
- MIC ([2]; SA0736, selecting agent DAP, passage 40W (white colonies)): 4 µg/mL
- MIC [2, 12]: 4 µg/mL
- MIC [2, 13]: 0.5 µg/mL
- MIC [2, 14]: 8 µg/mL
- MIC [2, 15]: 8 µg/mL
- MIC values [2, 16]: 4 µg/mL
- MIC values [2, 17]: 4 µg/mL
- MIC [2, 18]: 0.5 µg/mL
- change of MICs on deletion of SACOL1927 (yfhP) [3]: did not change
- MIC values ([3]; Table S1: RN4220 WT): 0.5 µg/mL
- MIC values [3, 19]: 0.5 µg/mL
- MIC [3]: 0.5 µg/mL
- PAP AUC ratio ([4]; after 40 passages in vancomycin): 1.0–1.2
- PAP AUC ratio ([4]; after daptomycin selection): 0.4–1.0
- MIC [5, 20]: 1 µg/mL
- MIC [5, 21]: 2 µg/mL
- MIC [5, 22]: 4 µg/mL
- MIC [5, 23]: 0.25 µg/mL
- MIC [5, 24]: 0.25 µg/mL
- MIC [5, 25]: 2 µg/mL
- MIC [5, 26]: 8 µg/mL
- MIC [5, 27]: 0.25 µg/mL
- MIC [6, 28]: 1 µg/mL
- MIC [6, 29]: 2 µg/mL
- MIC [6, 30]: 4 µg/mL
- MIC [6, 31]: 1 µg/mL
- MIC [6, 32]: 4 µg/mL
- MIC [6, 33]: 4 µg/mL
- MIC [6, 34]: 8 µg/mL
- MIC values [6]: 1 µg/mL
- MIC [6, 35]: 1 µg/mL
- MIC [7, 36]: 1 µg/mL
- MIC [7, 37]: 2 µg/mL
- MIC [7, 38]: 2 µg/mL
- MIC [7, 39]: 1 µg/mL
- MIC [7, 40]: 2 µg/mL
- MIC [7, 41]: 4 µg/mL
- MIC [7, 42]: 4 µg/mL
- MIC [7, 43]: 1 µg/mL
- MIC [8, 44]: 2 µg/mL
- MIC [8, 45]: 4 µg/mL
- MIC [8, 46]: 4 µg/mL
- MIC [8, 47]: 1 µg/mL
- MIC [8, 48]: 4 µg/mL
- MIC [8, 49]: 8 µg/mL
- MIC [8, 50]: 8 µg/mL
- MIC values [8]: 1 µg/mL
- MIC [8, 51]: 1 µg/mL

Compound: CCCCCCCCCC(=O)N[C@@H](Cc1c[nH]c2ccccc12)C(=O)N[C@H](CC(N)=O)C(=O)N[C@@H](CC(=O)O)C(=O)N[C@@H]1C(=O)NCC(=O)N[C@@H](CCCN)C(=O)N[C@@H](CC(=O)O)C(=O)N[C@H](C)C(=O)N[C@@H](CC(=O)O)C(=O)NCC(=O)N[C@H](CO)C(=O)N[C@@H]([C@H](C)CC(=O)O)C(=O)N[C@@H](CC(=O)c2ccccc2N)C(=O)O[C@@H]1C [DAP, daptomycin]
- MIC range by the 20th passage ([1]; all strains, 20th passage of daptomycin selection): 8 to 32 µg/mL
- MIC correlated with mprF mutations ([1]; daptomycin-selected derivatives, after the 20th passage): up to 32 mg/L
- MICs in derivatives of all strains after selection with vancomycin ([1]; selection with vancomycin, derivatives of all strains): 2 µg/mL
- MIC [2, 10]: 1 µg/mL (≈ 0.617 µM)
- MIC [2, 11]: 32 µg/mL (≈ 19.7 µM)
- MIC [2, 12]: >64 µg/mL
- MIC [2, 13]: 0.25 µg/mL (≈ 0.154 µM)
- MIC ([2]; SA0736, selecting agent VAN, passage 5): 0.5 µg/mL (≈ 0.309 µM)
- MIC [2, 14]: 0.5 µg/mL (≈ 0.309 µM)
- MIC [2, 15]: 2 µg/mL (≈ 1.23 µM)
- MIC values [2, 16]: > 64 µg/mL
- MIC values [2, 17]: > 64 µg/mL
- MIC [2, 18]: 0.25 µg/mL (≈ 0.154 µM)
- MIC ([9]; moderate increase): 2 µg/mL (≈ 1.23 µM)
- effect on MIC [9]: no effect
- change of MICs on deletion of SACOL1927 (yfhP) [3]: did not change
- MIC values ([3]; Table S1: RN4220 WT): 0.25 µg/mL (≈ 0.154 µM)
- MIC values [3, 19]: 0.25 µg/mL (≈ 0.154 µM)
- MIC [3]: 0.25 µg/mL (≈ 0.154 µM)
- MIC [5, 20]: 0.5 µg/mL (≈ 0.309 µM)
- MIC [5, 21]: 32 µg/mL (≈ 19.7 µM)
- MIC [5, 22]: 64 µg/mL (≈ 39.5 µM)
- MIC [5, 23]: 0.125 µg/mL (≈ 0.0771 µM)
- MIC [5, 24]: 0.25 µg/mL (≈ 0.154 µM)
- MIC [5, 25]: 2 µg/mL (≈ 1.23 µM)
- MIC [5, 26]: 2 µg/mL (≈ 1.23 µM)
- MIC [5, 27]: 0.125 µg/mL (≈ 0.0771 µM)
- MIC [6, 28]: 0.5 µg/mL (≈ 0.309 µM)
- MIC [6, 29]: 32 µg/mL (≈ 19.7 µM)
- MIC [6, 30]: >64 µg/mL
- MIC [6, 31]: 0.5 µg/mL (≈ 0.309 µM)
- MIC [6, 32]: 1 µg/mL (≈ 0.617 µM)
- MIC [6, 33]: 2 µg/mL (≈ 1.23 µM)
- MIC [6, 34]: 2 µg/mL (≈ 1.23 µM)
- MIC values [6]: 0.5 µg/mL (≈ 0.309 µM)
- MIC [6, 35]: 0.5 µg/mL (≈ 0.309 µM)
- MIC [7, 36]: 8 µg/mL (≈ 4.94 µM)
- MIC [7, 37]: 16 µg/mL (≈ 9.87 µM)
- MIC [7, 38]: >64 µg/mL
- MIC [7, 39]: 0.25 µg/mL (≈ 0.154 µM)
- MIC [7, 40]: 1 µg/mL (≈ 0.617 µM)
- MIC [7, 41]: 1 µg/mL (≈ 0.617 µM)
- MIC [7, 42]: 2 µg/mL (≈ 1.23 µM)
- MIC [7, 43]: 0.25 µg/mL (≈ 0.154 µM)
- MIC [8, 44]: 0.5 µg/mL (≈ 0.309 µM)
- MIC [8, 45]: 8 µg/mL (≈ 4.94 µM)
- MIC [8, 46]: 32 µg/mL (≈ 19.7 µM)
- MIC [8, 47]: 0.25 µg/mL (≈ 0.154 µM)
- MIC [8, 48]: 2 µg/mL (≈ 1.23 µM)
- MIC [8, 49]: 2 µg/mL (≈ 1.23 µM)
- MIC [8, 50]: 2 µg/mL (≈ 1.23 µM)
- MIC values [8]: 0.25 µg/mL (≈ 0.154 µM)
- MIC [8, 51]: 0.25 µg/mL (≈ 0.154 µM)
